Measured values as given in publication PMC11521937, “Expression and characterization of pantothenate energy‐coupling factor transporters as an anti‐infective drug target” (Protein Science : A Publication of the Protein Society, 2024).
Read-outs that look alike come from different tables or passages of the source.

Experiments:
ECF‐FolT2 = ECF‐FolT2 (Lactobacillus delbrueckii subsp. bulgaricus, UniProt Q1G929+Q1GBI8+Q1GBI9+Q1GBJ0); assay: SPR binding to immobilized ECF‐FolT2; details: for Kd: n = 2
Chain of ECF‐FolT2 (Q1GBJ0 whole entry): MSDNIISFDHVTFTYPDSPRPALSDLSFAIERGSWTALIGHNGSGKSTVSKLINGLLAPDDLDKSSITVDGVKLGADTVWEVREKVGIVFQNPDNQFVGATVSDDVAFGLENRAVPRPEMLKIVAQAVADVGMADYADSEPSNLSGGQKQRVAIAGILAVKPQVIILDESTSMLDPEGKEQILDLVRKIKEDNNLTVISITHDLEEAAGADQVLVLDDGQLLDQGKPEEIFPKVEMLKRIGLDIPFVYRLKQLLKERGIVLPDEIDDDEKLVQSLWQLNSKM
Chain of ECF‐FolT2 (Q1GBI9 whole entry): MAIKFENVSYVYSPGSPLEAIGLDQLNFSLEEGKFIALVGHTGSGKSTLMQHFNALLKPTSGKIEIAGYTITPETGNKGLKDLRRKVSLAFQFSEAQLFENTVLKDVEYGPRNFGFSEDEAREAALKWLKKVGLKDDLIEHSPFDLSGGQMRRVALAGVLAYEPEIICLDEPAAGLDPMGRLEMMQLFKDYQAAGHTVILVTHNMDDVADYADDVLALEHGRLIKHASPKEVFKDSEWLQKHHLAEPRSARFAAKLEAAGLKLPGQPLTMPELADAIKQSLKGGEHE
Chain of ECF‐FolT2 (Q1GBI8 entry or part of it): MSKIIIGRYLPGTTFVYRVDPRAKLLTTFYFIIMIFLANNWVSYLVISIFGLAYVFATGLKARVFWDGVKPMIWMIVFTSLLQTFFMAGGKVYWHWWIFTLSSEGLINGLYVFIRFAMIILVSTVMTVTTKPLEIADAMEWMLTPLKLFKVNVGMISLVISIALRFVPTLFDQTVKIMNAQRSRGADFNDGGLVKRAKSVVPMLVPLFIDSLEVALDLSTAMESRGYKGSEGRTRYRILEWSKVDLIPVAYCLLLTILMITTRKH
Chain of ECF‐FolT2 (Q1G929 entry or part of it): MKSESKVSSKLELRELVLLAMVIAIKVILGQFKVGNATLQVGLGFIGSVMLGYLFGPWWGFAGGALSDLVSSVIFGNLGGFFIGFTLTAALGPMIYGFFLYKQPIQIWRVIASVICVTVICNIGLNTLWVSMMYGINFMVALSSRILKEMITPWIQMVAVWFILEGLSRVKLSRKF
Procedure: The ECF‐PanT, ECF‐module, and ECF‐FolT2, each bearing a histidine tag, were immobilized on a high‐affinity poly‐nitrilotriacetic acid (poly‐NTA) sensor chip, which was initially activated using NiCl2.
Additionally, the protein was maintained in the buffer containing 5% (v/v) DMSO. For a more in‐depth description of the procedures, please refer to Appendix S1.
Surface plasmon resonance (SPR)
The SPR binding studies were performed using a Reichert 4SPR surface plasmon resonance spectrometer (Reichert Technologies, Buffalo, NY, USA), and medium–density NTA derivatized polycarboxylate hydrogel NiHC200M sensor chips (XanTec Bioanalytics, Düsseldorf, Germany). The experimental procedure involved two rounds of nickel activation and one immobilization step at a […]
standard protocol as provided by Xantec bioanalytics with a slight modification based on the recombinant proteins. The flow-cell 4 was left blank to serve as a reference.
The immobilization buffer employed for the immobilization process consisted of 10 mM HEPES with a pH of 7.5, 50 mM NaCl, 50 µM EDTA, and 0.05% DDM without DMSO. Following the immobilization step, for the binding study of the compounds, the running buffer was exchanged for the mentioned buffer with 5% v/v DMSO. This was done to ensure consistency in the percentage of DMSO present in the solutions containing the respective testing inhibitors, as these inhibitors were soluble in the DMSO solvent. By maintaining the same DMSO concentration, we aimed to minimize any potential solvent-related effects on the assay results. All running buffers were filtered and degassed before use.
The system was initially primed with 5 mM NiCl2 with an association and dissociation time of 2 min for each to activate the NTA sensor chip. Then, the recombinant proteins with a concentration of 200 nM were injected at a flow rate of 10 µL/min for 8 min. Finally, the baseline check with the running […]
First, the calibration curve for correction of the DMSO effect was prepared; the concentrations were […]
concentration of DMSO in all the samples was set to 5% v/v DMSO. The samples (200 µL) were loaded on a 96-well plate and were injected at a flow rate of 50 μL/min. Single-cycle kinetics were applied for KD determination. The association time was set to 60 s, and the dissociation phase was recorded for 120 s. For surface regeneration, 0.35 M EDTA (pH 8.5) and 0.1 M NaOH were used. Data processing and […]
were calculated by sequential subtractions of the corresponding curves obtained from the reference flow cell and the running buffer (blank). SPR responses were expressed in the resonance unit (RU). The KD values were calculated by global fitting of the kinetic curves as well as fitting of the steady state binding responses to a 1:1 Langmuir interaction model.
The SPR experiments were conducted at least two times, representing independent replicates. The […]
interactions, are presented in Figure S12 for ECF-PanT, Figure S13 for ECF-FolT2, and Figure S14 for […]

A549 cells = assay: In vitro MTT cytotoxicity assay, A549; format: cell-based, human; details: 48 h, 100 µM
Procedure: (§1) In vitro cytotoxicity evaluation […]
(§2) with minor modifications, which will be detailed below.
(§3) To obtain information regarding the toxicity of our compounds, their impact on the viability of human cells was investigated. HepG2 and A549 cells (2 × 10^4 cells per well) were seeded in 96-well, flat-bottomed culture plates in 100 µL culture medium (DMEM containing 10% fetal calve serum, 1% penicillin-streptomycin). Twenty-four hours after seeding the cells, medium was removed and replaced by medium containing test compounds in a final DMSO concentration of 1%. Compounds were tested in duplicates at a single concentration in 1% DMSO/medium. Epirubicin and doxorubicin were used as positive controls in serial dilutions starting from 10 µM, and rifampicin was used as a negative control (at 100 µM). The living cell mass was determined 48 h after treatment with compounds by adding 0.1 volumes of 3-(4,5-dimethylthiazol-2-yl)-2,5-diphenyltetrazolium bromide (MTT) solution (5 mg/mL sterile PBS) (Sigma, St. Louis, MO) to the wells. After incubating the cells for 30 min at 37 °C (atmosphere containing 5% CO2), medium was removed and MTT crystals were dissolved in 75 µL of a solution containing 10% SDS and 0.5% acetic acid in DMSO. The optical density (OD) of the samples was determined photometrically at 570 nm in a PHERAstar Omega plate reader (BMG labtech, Ortenberg, Germany). To obtain percent viability for each sample, their ODs were related to those of DMSO controls. At least two independent measurements were performed for each compound. The calculation of IC50 was performed using the nonlinear regression function of GraphPad Prism 10 (GraphPad Software, San Diego, CA, USA). […]

[1] = In vitro MTT cytotoxicity assay, A549; format: cell-based, human; details: human, read-out: Percent (%) cell viability at 100 μM, A549 cells
Procedure: as §1, §2, §3

S. pneumoniae DSM‐20566 = assay: Galleria mellonella infection model with S. pneumoniae; format: in vivo; details: S. pneumoniae OD600 1.5, after 3 days
Procedure: Next, we examined the antibacterial effect of the ECF inhibitors under in vivo conditions by using G. mellonella larvae. This model was adopted based on the work of Alhayek et al. ([2022]) and serves to assess the efficacy of ECF inhibitors against S. pneumoniae induced infection. Larvae were injected with the overnight culture of S. pneumoniae DSM‐20566, incubated for 3 days at 37°C and 5% CO2 without shaking, and survival rates were monitored daily for 3 days (Figure 4).
G. mellonella larvae were used as an in vivo infection model to test selected ECF inhibitors, following the methodology established by Alhayek et al. ([2022]). S. pneumoniae DSM‐20566 was cultured in Todd–Hewitt medium with 0.1% choline at 37°C with 5% CO2 until an OD600 of 1.5 or higher was reached. Larvae were infected by injecting 10 μL of the culture into the left proleg and incubated at 37°C, 5% CO2 for 72–96 h. Survival was monitored daily. Control groups received either PBS or no injection. […]. The larvae used in this study were purchased from VALOMOLIA Company (Strasbourg, France).

Lactobacillus casei = assay: L. casei whole‐cell uptake assay; format: cell-based; details: Lacticaseibacillus casei
HepG2 cells = assay: In vitro MTT cytotoxicity assay, HepG2; format: cell-based, human; details: 48 h
Procedure: as §1, §2, §3

[2] = Equilibrium, K D, SPR, L. delbrueckii ECF‐FolT2, steady state fit
[3] = Kinetic, K D, SPR, L. delbrueckii ECF‐FolT2, global fit of kinetic curves
[4] = SPR, L. delbrueckii ECF‐FolT2, global fit of kinetic curves, read-out: Kinetic, K D
[5] = SPR, L. delbrueckii ECF‐FolT2, steady state fit, read-out: Equilibrium, K D
[6] = pH 7.5, SPR, L. delbrueckii ECF‐FolT2, n = 2, read-out: k a
[7] = pH 7.5, SPR, L. delbrueckii ECF‐FolT2, n = 2, read-out: k d

In the case of `O=C(O)c1cc(OCc2cccc3ccccc23)ccc1O` [Compound 1], the Kd (ECF‐FolT2; [2]) is reported as 300 ± 20 µM, the Kd (ECF‐FolT2; [3]) is reported as 294 ± 6 µM and the “Percent (%) cell viability at 100 μM, A549 cells” value (A549 cells) is reported as 111 ± 6%. For the same compound, the viability at 48 h, 100 µM [1] was greater than 100%.

With `O=C(O)c1cc(OCc2ccc(Br)c3ccccc23)ccc1O` [Compound 2] the Kd (ECF‐FolT2; [2]) was 190 ± 20 µM, the Kd (ECF‐FolT2; [3]) was 185 ± 3 µM and the “Percent (%) cell viability at 100 μM, A549 cells” value (A549 cells) was 124 ± 15%. The larval survival (S. pneumoniae DSM‐20566; compound at 10 μM) was “up to 70%” and the larval survival (S. pneumoniae DSM‐20566; compound at 50 μM) was “up to 70%”.

In the case of `CC(C)(C)OC(=O)Nc1ccc(OCc2cccc3ccccc23)cc1C(=O)O` [Compound 3], the Kd (ECF‐FolT2; [2]) is reported as 128 ± 9 µM, the Kd (ECF‐FolT2; [3]) is reported as 132 ± 3 µM and the kon (ECF‐FolT2; pH 7.5, read-out: k a) is reported as 570 ± 10 M⁻¹ s⁻¹. It also gave a koff (ECF‐FolT2; pH 7.5, read-out: k d) of 0.0755 ± 0.0008 s⁻¹, a viability at 48 h, 100 µM [1] of 86 ± 11% and a larval survival (S. pneumoniae DSM‐20566; compound at 10 μM) of 60%. For the same compound, the larval survival (S. pneumoniae DSM‐20566; compound at 50 μM) was 50%.

Compound `O=C(O)c1cccc(NCc2ccc(-c3ccc(Cl)cc3)o2)c1` [Compound 4] has a Kd (ECF‐FolT2; [4]) of 353 ± 5 µM, a Kd (ECF‐FolT2; [5]) of 340 ± 10 µM and a kon (ECF‐FolT2; [6]) of 325 ± 5 M⁻¹ s⁻¹. It also gave a koff (ECF‐FolT2; [7]) of 0.115 ± 0.001 s⁻¹, an IC50 (Lactobacillus casei) of 321 ± 200 µM and a viability at 48 h, 100 µM ([1]; A549 cells) of 80 ± 10%. The larval survival (S. pneumoniae DSM‐20566; compound at 10 μM) was 40% and the larval survival (S. pneumoniae DSM‐20566; compound at 50 μM) was 60%.

Work on `O=C(O)c1cccc(NCc2ccc(-c3cccc(Cl)c3)o2)c1` [Compound 5] yielded a Kd (ECF‐FolT2; [4]) of 328 ± 6 µM, a Kd (ECF‐FolT2; [5]) of 300 ± 30 µM and a kon (ECF‐FolT2; [6]) of 570 ± 10 M⁻¹ s⁻¹. The koff (ECF‐FolT2; [7]) was 0.187 ± 0.003 s⁻¹, the “Percent (%) cell viability at 100 μM, HepG2 cells” value (HepG2 cells) was “non‐toxic” and the IC50 (Lactobacillus casei) was 247 ± 78 µM. It also gave a viability at 48 h, 100 µM ([1]; A549 cells) of 102 ± 17%.

`O=C(O)c1cccc(NCc2ccc(-c3ccccc3Cl)o2)c1` [Compound 6] showed a Kd (ECF‐FolT2; [4]) of 231 ± 5 µM, a Kd (ECF‐FolT2; [5]) of 230 ± 10 µM and a kon (ECF‐FolT2; [6]) of 100000 M⁻¹ s⁻¹. The koff (ECF‐FolT2; [7]) was 22 ± 3 s⁻¹, the “Percent (%) cell viability at 100 μM, HepG2 cells” value (HepG2 cells) was “non‐toxic” and the IC50 (Lactobacillus casei) was 285 ± 293 µM. It also gave a viability at 48 h, 100 µM ([1]; A549 cells) of 103 ± 7%.
